Results: US20220153734A1, “Pyrazolopyridine Compounds For IRE1 Inhibition” (Optikira, LLC, priority 2019, published 2022)
pIC50: −log10 of the molar value.

Key:
[1] = test system: ARPE-19 cells stably expressing XBP1 (a.a. 1-376); test: Cellular XBP1 splicing assay (NanoLuc luciferase, thapsigargin); type: cell-based; conditions: thapsigargin 150 nM
Experimental: Cellular XBP1 Splicing Assay
ARPE-19 cells stably expressing XBP1 (a.a. 1-376) with nano-luciferase gene sequence linked so it is in frame when XBP1 is spliced, were cultured in F12 media, 10% FBS, 0.044% sodium bicarbonate, 150 μg/ml hygromycin B and seeded for assays at 5,000 cells in 384 well plates in culture media without hygromycin B and incubated at 37° C./5% CO2. After overnight incubation test compounds were added to the cell plate in a 10-point ½ log dilution series in duplicate (final DMSO concentration 0.117%). After further incubation of 30 minutes thapsigargin was added (final concentration 150 nM) and then another 4 hour incubation. A NanoLuc luciferase assay (Promega) was used according to the manufacturer's instructions to detect the luciferase and luminescence measured on a luminometer (EnVision, PerkinElmer). IC50 values calculated by fitting a sigmoidal curve to percent inhibition of control of compound concentration.

IRE1α = target: T1, IRE1α (Homo sapiens, UniProt O75460); test: Biochemical assay: inhibition of RNase activity of IRE1α; conditions: enzyme 0.325 nM, substrate 100 nM, 20 minutes
T1 construct: purchased Signal Chem E31-11G
T1 sequence (O75460 468-977 limits assumed): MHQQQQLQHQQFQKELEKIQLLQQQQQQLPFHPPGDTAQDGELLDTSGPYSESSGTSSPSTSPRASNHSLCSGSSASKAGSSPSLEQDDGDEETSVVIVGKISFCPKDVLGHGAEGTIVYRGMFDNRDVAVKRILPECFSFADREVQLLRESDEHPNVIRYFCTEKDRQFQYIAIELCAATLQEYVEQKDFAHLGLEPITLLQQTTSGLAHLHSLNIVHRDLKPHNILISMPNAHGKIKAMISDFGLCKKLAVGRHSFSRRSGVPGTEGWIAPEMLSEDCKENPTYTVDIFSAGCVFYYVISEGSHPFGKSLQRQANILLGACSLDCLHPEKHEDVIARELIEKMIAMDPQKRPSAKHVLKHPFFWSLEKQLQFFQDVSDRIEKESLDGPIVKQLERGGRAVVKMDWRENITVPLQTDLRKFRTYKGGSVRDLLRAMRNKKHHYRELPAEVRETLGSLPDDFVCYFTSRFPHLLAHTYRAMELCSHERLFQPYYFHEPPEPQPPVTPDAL
Experimental: Biochemical Assay: Inhibition of RNase Activity of IRE1α
The RNase reactions were performed in 384 well black ProxiPlate-384 Plus plates (PERKIN Elmer) using 50 mM Tris assay buffer with 0.5 mM MgCl2, 10 mM KCl, 0.03% Tween, 2 mM DTT and 1% DMSO. Test compounds were prepared on the day of assay and dispensed using D300 digital dispenser as a 10-point ½ log dilution series in duplicate, normalized to a final DMSO concentration of […]. Test compounds were pre-incubated for 30 min at room temperature with IRE1α kinase (E31-11G from Signal Chem) in 2.5 μL of assay buffer. Then 2.5 μl of assay buffer containing substrate (5′ Alexa Fluor 647-rCrArU rGrUrC rCrGrC rArGrC rGrCrArUrG-Iowa Black RQ quencher 3′) added, giving a final concentration of enzyme of 0.325 nM and of substrate of 100 nM. After 20 minutes incubation at room temperature the reactions were stopped by added 5 μL of 5M urea, incubated at room temperature for 10 minutes and fluorescence measured on a plate reader (EnVision, PerkinElmer). IC50 values calculated by fitting a sigmoidal curve to percent inhibition of control versus compound concentration.

pIC50 ([1]; 4 hour) | pIC50 (IRE1α) | pIC50 ([1]; Homo sapiens, ARPE-19, 4 h) | SMILES
7.33 | 8.47 |  | CC(CF)NC1CC=C(c2cnc(N)c3c(-c4ccc(NS(=O)(=O)Cc5ccccc5Cl)c(F)c4)nn(C(C)C)c23)CC1 (single isomer, unassigned) [Compound B45, N-(4-(4-amino-7-(4-((1-fluoropropan-2-yl)amino)cyclohex-1-en-1-yl)-14sopropyl-1H-pyrazolo[4,3-c]pyridin-3-yl)-2-fluorophenyl)-1-(2-chlorophenyl)methanesulfonamide]
 | 8.33 | 7.66 | CC(F)CNC1CC=C(c2cnc(N)c3c(-c4ccc(NS(=O)(=O)c5ccccc5Cl)c(F)c4)nn(C(C)C)c23)CC1 (single isomer, unassigned) [Compound B46, N-(4-(4-amino-7-(4-((2-fluoropropyl)amino)cyclohex-1-en-1-yl)-1-isopropyl-1H-pyrazolo[4,3-c]pyridin-3-yl)-2-fluorophenyl)-2-chlorobenzenesulfonamide]
7.77 | 8.35 |  | CC(F)CNC1CC=C(c2cnc(N)c3c(-c4ccc(NS(=O)(=O)c5ccccc5Cl)c(F)c4)nn(C(C)C)c23)CC1 (single isomer, unassigned) [Compound B47, N-(4-(4-amino-7-(4-((2-fluoropropyl)amino)cyclohex-1-en-1-yl)-1-isopropyl-1H-pyrazolo[4,3-c]pyridin-3-yl)-2-fluorophenyl)-2-chlorobenzenesulfonamide]
7.89 | 8.89 |  | CC(C)n1nc(-c2ccc(NS(=O)(=O)Cc3ccccc3Cl)c(F)c2)c2c(N)ncc(C3=CCC(NC4CC(F)(F)C4)CC3)c21 (single isomer, unassigned) [Compound B48, N-(4-(4-amino-7-(4-((3,3-difluorocyclobutyl)amino)cyclohex-1-en-1-yl)-1-isopropyl-1H-pyrazolo[4,3-c]pyridin-3-yl)-2-fluorophenyl)-1-(2-chlorophenyl)methanesulfonamide]
7.19 | 8.39 |  | CC(C)n1nc(-c2ccc(NS(=O)(=O)Cc3ccccc3Cl)c(F)c2)c2c(N)ncc(C3=CCC(NC4CC(F)(F)C4)CC3)c21 (single isomer, unassigned) [Compound B49, N-(4-(4-amino-7-(4-((3,3-difluorocyclobutyl)amino)cyclohex-1-en-1-yl)-1-isopropyl-1H-pyrazolo[4,3-c]pyridin-3-yl)-2-fluorophenyl)-1-(2-chlorophenyl)methanesulfonamide]
7.60 | 8.30 |  | CC(C)n1nc(-c2ccc(NS(=O)(=O)c3ccccc3Cl)c(F)c2)c2c(N)ncc(C3=CCC(NC4CC(F)(F)C4)CC3)c21 (single isomer, unassigned) [Compound B50]
6.72 | 7.51 |  | CC(C)n1nc(-c2ccc(NS(=O)(=O)c3ccccc3Cl)c(F)c2)c2c(N)ncc(C3=CCC(NC4CC(F)(F)C4)CC3)c21 (single isomer, unassigned) [Compound B51]
8.01 | 8.11 |  | COCCNC1CC=C(c2cnc(N)c3c(-c4ccc(NS(=O)(=O)c5ccccc5Cl)c(F)c4)nn(C(C)C)c23)CC1 (single isomer, unassigned) [Compound B52, N-(4-(4-amino-1-isopropyl-7-(4-((2-methoxyethyl)amino)cyclohex-1-en-1-yl)-1H-pyrazolo[4,3-c]pyridin-3-yl)-2-fluorophenyl)-2-chlorobenzenesulfonamide]
7.15 | 7.77 |  | COCCNC1CC=C(c2cnc(N)c3c(-c4ccc(NS(=O)(=O)c5ccccc5Cl)c(F)c4)nn(C(C)C)c23)CC1 (single isomer, unassigned) [Compound B53, N-(4-(4-amino-1-isopropyl-7-(4-((2-methoxyethyl)amino)cyclohex-1-en-1-yl)-1H-pyrazolo[4,3-c]pyridin-3-yl)-2-fluorophenyl)-2-chlorobenzenesulfonamide]

Continued, compound first:

SMILES | pIC50 ([1]; 4 hour) | pIC50 (IRE1α) | pIC50 ([1]; Homo sapiens, ARPE-19, 4 h)
CCn1nc(-c2ccc(NS(=O)(=O)c3ccccc3F)c(F)c2)c2c(N)ncc(C3=CCC(NC4COC4)CC3)c21 (single isomer, unassigned) [Compound B33, N-(4-(4-amino-1-ethyl-7-(4-(oxetan-3-ylamino)cyclohex-1-en-1-yl)-1H-pyrazolo[4,3-c]pyridin-3-yl)-2-fluorophenyl)-2-fluorobenzenesulfonamide] | 7.00 | 7.22 | 
CCn1nc(-c2ccc(NS(=O)(=O)c3ccccc3F)c(F)c2)c2c(N)ncc(C3=CCC(NC4COC4)CC3)c21 (single isomer, unassigned) [Compound B34, N-(4-(4-amino-1-ethyl-7-(4-(oxetan-3-ylamino)cyclohex-1-en-1-yl)-1H-pyrazolo[4,3-c]pyridin-3-yl)-2-fluorophenyl)-2-fluorobenzenesulfonamide] | 6.40 | 7.00 | 
CCn1nc(-c2ccc(NS(=O)(=O)c3cc(C)ccc3F)c(F)c2)c2c(N)ncc(C3=CCC(NC4COC4)CC3)c21 (single isomer, unassigned) [Compound B35, N-(4-(4-amino-1-ethyl-7-(4-(oxetan-3-ylamino)cyclohex-1-en-1-yl)-1H-pyrazolo[4,3-c]pyridin-3-yl)-2-fluorophenyl)-2-fluoro-5-methylbenzenesulfonamide] | 7.28 | 7.85 | 
CCn1nc(-c2ccc(NS(=O)(=O)c3cc(C)ccc3F)c(F)c2)c2c(N)ncc(C3=CCC(NC4COC4)CC3)c21 (single isomer, unassigned) [Compound B36, N-(4-(4-amino-1-ethyl-7-(4-(oxetan-3-ylamino)cyclohex-1-en-1-yl)-1H-pyrazolo[4,3-c]pyridin-3-yl)-2-fluorophenyl)-2-fluoro-5-methylbenzenesulfonamide] | 6.68 | 7.29 | 
CCn1nc(-c2ccc(NS(=O)(=O)c3cc(Cl)ccc3F)c(F)c2)c2c(N)ncc(C3=CCC(NC4COC4)CC3)c21 (single isomer, unassigned) [Compound B38, N-(4-(4-amino-1-ethyl-7-(4-(oxetan-3-ylamino)cyclohex-1-en-1-yl)-1H-pyrazolo[4,3-c]pyridin-3-yl)-2-fluorophenyl)-5-chloro-2-fluorobenzenesulfonamide] | 7.01 | 8.25 | 
CC(CF)NC1CC=C(c2cnc(N)c3c(-c4ccc(NS(=O)(=O)c5ccccc5Cl)c(F)c4)nn(C(C)C)c23)CC1 (single isomer, unassigned) [Compound B40, N-(4-(4-amino-7-(4-((1-fluoropropan-2-yl)amino)cyclohex-1-en-1-yl)-1-isopropyl-1H-pyrazolo[4,3-c]pyridin-3-yl)-2-fluorophenyl)-2-chlorobenzenesulfonamide] | 7.17 | 7.85 | 
CC(CF)NC1CC=C(c2cnc(N)c3c(-c4ccc(NS(=O)(=O)c5ccccc5Cl)c(F)c4)nn(C(C)C)c23)CC1 (single isomer, unassigned) [Compound B41, N-(4-(4-amino-7-(4-((1-fluoropropan-2-yl)amino)cyclohex-1-en-1-yl)-1-isopropyl-1H-pyrazolo[4,3-c]pyridin-3-yl)-2-fluorophenyl)-2-chlorobenzenesulfonamide] | 8.00 | 8.21 | 
CC(F)CNC1CC=C(c2cnc(N)c3c(-c4ccc(NS(=O)(=O)Cc5ccccc5Cl)c(F)c4)nn(C(C)C)c23)CC1 (single isomer, unassigned) [Compound B42, N-(4-(4-amino-7-(4-((2-fluoropropyl)amino)cyclohex-1-en-1-yl)-1-isopropyl-1H-pyrazolo[4,3-c]pyridin-3-yl)-2-fluorophenyl)-1-(2-chlorophenyl)methanesulfonamide] | 7.74 | 8.77 | 
CC(F)CNC1CC=C(c2cnc(N)c3c(-c4ccc(NS(=O)(=O)Cc5ccccc5Cl)c(F)c4)nn(C(C)C)c23)CC1 (single isomer, unassigned) [Compound B43, N-(4-(4-amino-7-(4-((2-fluoropropyl)amino)cyclohex-1-en-1-yl)-1-isopropyl-1H-pyrazolo[4,3-c]pyridin-3-yl)-2-fluorophenyl)-1-(2-chlorophenyl)methanesulfonamide] | 8.29 | 9.30 | 
CC(CF)NC1CC=C(c2cnc(N)c3c(-c4ccc(NS(=O)(=O)Cc5ccccc5Cl)c(F)c4)nn(C(C)C)c23)CC1 (single isomer, unassigned) [Compound B44, N-(4-(4-amino-7-(4-((1-fluoropropan-2-yl)amino)cyclohex-1-en-1-yl)-1-isopropyl-1H-pyrazolo[4,3-c]pyridin-3-yl)-2-fluorophenyl)-1-(2-chlorophenyl)methanesulfonamide] | 8.00 | 8.80 | 
